Assay results taken from patent US11739064B2, “HDAC inhibitors and therapeutic methods using the same” (THE BOARD OF TRUSTEES OF THE UNIVERSITY OF ILLINOIS, priority 2015, dated 2023).
Read-outs that look alike come from different tables or passages of the source.

Assays:
[1] = biological target: HDAC2 (Homo sapiens, UniProt Q92769); test: In vitro HDAC inhibition assay, HDAC2; assay type: biochemical; conditions: NI = No inhibition at a concentration of 50 pM (footnote b); read-out: HDAC isoform IC50, HDAC2
[2] = system: L3.6pl; test: In vitro growth inhibition (GI), MTS cell proliferation assay (Table 5), L3.6pl; assay type: cell-based; conditions: Homo sapiens, 72 hours post-treatment
[3] = biological target: Human HDAC1 (Homo sapiens, UniProt Q13547); test: In vitro HDAC inhibition assay, HDAC1
[4] = biological target: HDAC3/NcoR2 complex (Homo sapiens, UniProt O15379); test: In vitro HDAC inhibition assay, HDAC3; assay type: biochemical; conditions: NI = No inhibition at a concentration of 50 pM (footnote b); read-out: HDAC isoform IC50, HDAC3
[5] = system: BxPC3; test: In vitro growth inhibition (GI), MTS cell proliferation assay (Table 5), BxPC3; assay type: cell-based; conditions: Homo sapiens, BXPC-3, 72 hours post-treatment
[6] = biological target: T1, HDAC10 (Homo sapiens, UniProt Q969S8); test: In vitro HDAC inhibition assay, HDAC10; assay type: biochemical; conditions: NI = No inhibition at a concentration of 50 pM (footnote b); read-out: HDAC isoform IC50, HDAC10
T1 sequence (Q969S8 1-669): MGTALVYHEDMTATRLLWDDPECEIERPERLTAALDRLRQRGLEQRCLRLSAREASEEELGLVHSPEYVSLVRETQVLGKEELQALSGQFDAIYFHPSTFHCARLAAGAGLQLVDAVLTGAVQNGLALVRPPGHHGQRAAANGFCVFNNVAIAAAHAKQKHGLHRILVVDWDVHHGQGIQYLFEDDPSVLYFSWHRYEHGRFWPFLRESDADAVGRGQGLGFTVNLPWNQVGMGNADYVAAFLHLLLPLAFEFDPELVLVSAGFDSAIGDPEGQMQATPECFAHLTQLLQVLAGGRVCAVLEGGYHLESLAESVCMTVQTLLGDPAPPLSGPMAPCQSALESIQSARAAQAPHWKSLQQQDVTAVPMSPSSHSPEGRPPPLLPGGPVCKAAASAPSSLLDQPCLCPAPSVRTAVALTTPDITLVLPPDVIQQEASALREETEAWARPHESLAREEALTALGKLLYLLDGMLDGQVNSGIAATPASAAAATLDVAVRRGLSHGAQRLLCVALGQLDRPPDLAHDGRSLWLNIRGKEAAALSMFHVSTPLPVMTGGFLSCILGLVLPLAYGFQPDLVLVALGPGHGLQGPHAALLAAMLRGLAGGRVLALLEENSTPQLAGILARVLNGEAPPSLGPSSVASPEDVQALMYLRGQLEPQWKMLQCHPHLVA

[7] = biological target: T2, Human HDAC6 (Homo sapiens, UniProt Q9UBN7); test: In vitro HDAC inhibition assay, HDAC6; assay type: biochemical; conditions: read-out: HDAC isoform IC50, HDAC6
T2 construct: Full length with N-terminal GST tag, MW=159 kDa; GST (N); host or cells: baculovirus expression system, Sf9 cells
T2 sequence (Q9UBN7 1-1215): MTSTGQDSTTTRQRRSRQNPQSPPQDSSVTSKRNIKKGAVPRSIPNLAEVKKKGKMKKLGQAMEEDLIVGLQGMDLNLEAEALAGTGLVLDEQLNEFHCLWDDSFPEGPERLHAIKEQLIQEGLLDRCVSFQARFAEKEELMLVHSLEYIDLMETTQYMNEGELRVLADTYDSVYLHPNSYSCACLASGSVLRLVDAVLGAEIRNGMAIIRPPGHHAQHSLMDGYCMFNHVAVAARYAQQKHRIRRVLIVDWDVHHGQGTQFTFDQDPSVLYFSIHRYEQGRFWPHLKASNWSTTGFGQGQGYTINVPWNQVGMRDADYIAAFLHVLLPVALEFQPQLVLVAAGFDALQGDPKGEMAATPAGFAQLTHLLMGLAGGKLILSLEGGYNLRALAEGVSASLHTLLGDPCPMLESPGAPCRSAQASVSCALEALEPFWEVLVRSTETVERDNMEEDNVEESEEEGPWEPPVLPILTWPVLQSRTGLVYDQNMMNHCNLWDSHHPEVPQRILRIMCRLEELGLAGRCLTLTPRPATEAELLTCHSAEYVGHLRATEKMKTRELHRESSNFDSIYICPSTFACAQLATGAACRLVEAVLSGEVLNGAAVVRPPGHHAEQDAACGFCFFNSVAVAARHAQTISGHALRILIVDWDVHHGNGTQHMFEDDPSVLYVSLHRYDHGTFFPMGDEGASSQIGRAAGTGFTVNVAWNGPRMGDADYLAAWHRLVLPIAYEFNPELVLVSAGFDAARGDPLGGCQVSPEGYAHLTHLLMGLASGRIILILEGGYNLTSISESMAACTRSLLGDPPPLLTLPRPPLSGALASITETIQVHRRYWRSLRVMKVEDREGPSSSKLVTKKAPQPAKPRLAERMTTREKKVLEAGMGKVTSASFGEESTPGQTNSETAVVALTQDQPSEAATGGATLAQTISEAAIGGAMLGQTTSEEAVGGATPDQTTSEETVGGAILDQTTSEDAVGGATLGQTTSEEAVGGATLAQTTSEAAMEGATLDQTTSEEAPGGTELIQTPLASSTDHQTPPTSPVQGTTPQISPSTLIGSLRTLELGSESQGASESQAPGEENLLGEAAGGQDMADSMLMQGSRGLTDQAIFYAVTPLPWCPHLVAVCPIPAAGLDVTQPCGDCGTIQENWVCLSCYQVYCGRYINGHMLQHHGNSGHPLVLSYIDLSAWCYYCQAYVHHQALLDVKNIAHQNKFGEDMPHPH

[8] = system: acetylated alpha-tubulin; test: Accumulation of acetylated alpha-tubulin in pancreatic cancer cells; assay type: cell-based; conditions: FIG. 1A
Source text: Cell cycle and inhibition of alpha-tubulin deacetylation.

[9] = system: PANC1 cells; test: Scratch-wound cell migration assay; assay type: cell-based; design: key to Inhibition of cell migration, 24 h / Inhibition of cell migration, 48 h: Level of inhibition (high to low): +++, ++ or +; Level of inhibition (high to low): +++, ++ or +; Level of inhibition (high to low): +++, ++ or +; no inhibition: −; conditions: for Inhibition of cell migration, 24 h: PANC1, 24 h post wounding; for Inhibition of cell migration, 48 h: PANC1, 48 h post wounding
Method: FIG. 2 contains photographs of PANC1 cells treated with present compounds 9 and 6 taken 24 and 48 hours (post wounding) after a scratch was made through a confluent layer of cells; and
PANC1 Cell migration and effect on T and NK Cells. The effect of HDAC6 inhibition on cell migration and cellular cytotoxicity was evaluated. […] Thus, these HDAC6-selective inhibitors could function well to block metastasis. However, in contrast to the effect observed on cell migration, none of the compounds tested affected CD8+ T cell or natural killer (NK) cell-mediated cytotoxicity, despite the ability of the compounds to substantially increase the levels of acetyl-tubulin in these cell lines.

[10] = read-out: HDAC isoform IC50, HDAC1, NI = No inhibition at a concentration of 50 pM (footnote b)

Sequence of HDAC2 (Q92769 whole entry, canonical isoform): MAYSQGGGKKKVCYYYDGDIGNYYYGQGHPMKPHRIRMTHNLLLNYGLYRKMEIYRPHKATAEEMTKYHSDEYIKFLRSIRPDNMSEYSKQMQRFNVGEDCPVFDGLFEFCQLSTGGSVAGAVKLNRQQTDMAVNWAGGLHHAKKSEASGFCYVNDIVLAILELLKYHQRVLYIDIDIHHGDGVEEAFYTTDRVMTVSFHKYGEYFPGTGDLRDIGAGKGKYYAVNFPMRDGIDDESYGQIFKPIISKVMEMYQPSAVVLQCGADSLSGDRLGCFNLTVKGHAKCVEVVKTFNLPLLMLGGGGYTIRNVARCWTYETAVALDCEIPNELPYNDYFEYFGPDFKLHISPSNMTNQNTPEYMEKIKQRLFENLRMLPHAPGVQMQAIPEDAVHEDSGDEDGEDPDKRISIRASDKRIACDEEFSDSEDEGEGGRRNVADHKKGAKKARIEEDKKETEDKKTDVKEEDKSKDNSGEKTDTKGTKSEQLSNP
Sequence of HDAC3/NcoR2 complex (O15379 whole entry, canonical isoform): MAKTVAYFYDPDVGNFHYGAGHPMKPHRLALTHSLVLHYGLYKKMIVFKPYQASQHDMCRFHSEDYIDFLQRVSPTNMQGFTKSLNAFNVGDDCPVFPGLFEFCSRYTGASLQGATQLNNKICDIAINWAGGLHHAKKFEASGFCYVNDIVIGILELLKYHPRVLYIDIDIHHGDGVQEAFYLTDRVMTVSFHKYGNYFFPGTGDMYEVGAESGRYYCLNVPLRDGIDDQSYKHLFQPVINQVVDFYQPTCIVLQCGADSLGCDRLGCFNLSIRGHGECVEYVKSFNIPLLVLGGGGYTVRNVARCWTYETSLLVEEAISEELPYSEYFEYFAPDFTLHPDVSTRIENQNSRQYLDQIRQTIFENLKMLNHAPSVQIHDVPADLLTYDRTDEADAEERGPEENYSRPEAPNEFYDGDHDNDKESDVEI
Sequence of HDAC3/NcoR2 complex (Q9Y618 395-489 partner limits assumed): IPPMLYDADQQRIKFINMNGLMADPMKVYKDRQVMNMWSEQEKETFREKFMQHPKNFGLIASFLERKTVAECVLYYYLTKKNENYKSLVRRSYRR
Sequence of Human HDAC1 (Q13547 whole entry, canonical isoform): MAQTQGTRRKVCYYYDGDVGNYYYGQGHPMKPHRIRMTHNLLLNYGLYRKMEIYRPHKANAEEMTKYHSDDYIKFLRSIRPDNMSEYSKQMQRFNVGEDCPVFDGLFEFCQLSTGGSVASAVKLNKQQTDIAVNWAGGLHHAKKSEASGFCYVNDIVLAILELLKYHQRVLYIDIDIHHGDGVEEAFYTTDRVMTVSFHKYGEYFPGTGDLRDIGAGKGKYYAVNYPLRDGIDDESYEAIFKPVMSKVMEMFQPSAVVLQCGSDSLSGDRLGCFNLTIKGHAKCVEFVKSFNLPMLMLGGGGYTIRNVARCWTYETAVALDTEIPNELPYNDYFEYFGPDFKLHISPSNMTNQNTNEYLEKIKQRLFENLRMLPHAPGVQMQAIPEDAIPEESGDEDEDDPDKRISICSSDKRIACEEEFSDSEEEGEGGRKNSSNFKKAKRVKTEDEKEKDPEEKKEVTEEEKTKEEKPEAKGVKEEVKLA

SMILES | IC50 [1] | IC50 [3, 10] | IC50 [4] | GI50 [5] | IC50 [6] | IC50 [7] | IC50 [3] | GI50 [2] | Accumulation of acetylated alpha-tubulin [8] | Inhibition of cell migration, 24 h [9] | Inhibition of cell migration, 48 h [9] | Effect on PANC1 cell migration ([9]; compared to diluent-treated control cells)
CCOC(=O)Nc1ccc(-c2cc(C(=O)NCCc3cc(C(=O)NO)no3)no2)cc1 [Compound 8, (4-{3-[2-(3-Hydroxycarbamoyl-isoxazol-5-yl)-ethylcarbamoyl]-isoxazol-5-yl}-phenyl)-carbamic acid ethyl ester] | 41300 nM | 3910 nM | 5190 nM | > 50000 nM | 12500 nM | 101 nM |  | 47000 nM |  |  |  | 
COc1ccc(C(=O)NC(Cc2cc(C(=O)NO)no2)Cc2c[nH]c3ccccc23)cc1OC (centres unmarked) [Compound 21, 5-[2-(3,4-Dimethoxy-benzoylamino)-3-(1H-indol-3-yl)-propyl]-isoxazole-3-carboxylic acid hydroxyamide] |  |  | 54100 nM |  |  | 721 nM | 49900 nM |  |  |  |  | 
CC(C)(C)OC(=O)Nc1ccc(-c2csc(NC(=O)CCCc3cc(C(=O)NO)no3)n2)cc1 [Compound 3, (4-{2-[4-(3-Hydroxycarbamoyl-isoxazol-5-yl)-butyrylamino]-thiazol-4-yl}-phenyl)-carbamic acid tert-butyl ester] | 1140 nM | 401 nM | 448 nM |  | 52.9 nM | 41.2 nM |  |  |  |  |  | 
O=C(NO)c1cc(CCNC(=O)c2cc(-c3cccc(NC(=O)C4CCCCC4)c3)on2)on1 [Compound 11] |  |  |  | > 50000 nM |  | 6.7 nM |  | > 50000 nM | accumulation of acetylated alpha-tubulin | + | − | 
O=C(NO)c1cc(CC(Cc2c[nH]c3ccccc23)NC(=O)C(F)(F)F)on1 (centres unmarked) [Compound 20, 5-[3-(1H-Indol-3-yl)-2-(2,2,2-trifluoro-acetylamino)-propyl]-isoxazole-3-carboxylic acid hydroxyamide] |  |  | 41600 nM |  |  | 3050 nM |  |  |  |  |  | 
CC(C)(C)C(=O)Nc1cccc(-c2cc(C(=O)NCCc3cc(C(=O)NO)no3)no2)c1 [Compound 10, 5-[2-({5-[3-(2,2-Dimethyl-propionylamino)-phenyl]-isoxazole-3-carbonyl}-amino)-ethyl]-isoxazole-3-carboxylic acid hydroxyamide] |  |  |  |  | 40100 nM | 21.2 nM | 76000 nM |  | accumulation of acetylated alpha-tubulin | − | − | 
O=C(NC(Cc1cc(C(=O)NO)no1)Cc1c[nH]c2ccccc12)c1ccc(Cl)cc1 (centres unmarked) [Compound 19, 5-[2-(4-Chloro-benzoylamino)-3-(1H-indol-3-yl)-propyl]-isoxazole-3-carboxylic acid hydroxyamide] |  |  | 37800 nM |  |  | 430 nM | 46600 nM |  |  |  |  | 
Nc1cccc(-c2cc(C(=O)NCCc3cc(C(=O)NO)no3)no2)c1 [Compound 9, 5-(2-{[5-(3-Amino-phenyl)-isoxazole-3-carbonyl]-amino}-ethyl)-isoxazole-3-carboxylic acid hydroxyamide] | 2360 nM | 6680 nM | 1770 nM | 12000 nM | 5290 nM | 16.8 nM |  | 3300 nM | accumulation of acetylated alpha-tubulin | + | − | partial effect
CC(C)(C)OC(=O)Nc1cccc(-c2cc(C(=O)NCCc3cc(C(=O)NO)no3)no2)c1 [Compound 7, (3-{3-[2-(3-Hydroxycarbamoyl-isoxazol-5-yl)-ethylcarbamoyl]-isoxazol-5-yl}-phenyl)-carbamic acid tert-butyl ester] |  |  | 98800 nM | > 50000 nM |  | 7.7 nM | 54000 nM | > 50000 nM |  | + | + | 

These reach a lower IC50 [7]. Values come first.

IC50 [1] | IC50 [3, 10] | IC50 [4] | GI50 [5] | IC50 [6] | IC50 [7] | IC50 [3] | SMILES | GI50 [2] | Accumulation of acetylated alpha-tubulin [8] | Inhibition of cell migration, 24 h [9] | Inhibition of cell migration, 48 h [9] | Effect on PANC1 cell migration ([9]; compared to diluent-treated control cells)
2490 nM | 350 nM | 215 nM |  | 204 nM | 5.4 nM |  | O=C(NO)c1ccc(CNC(=O)c2cc(-c3ccc(NC(=O)C4CCCCC4)cc3)on2)cc1 [Compound 16, 5-[4-(Cyclohexanecarbonyl-amino)-phenyl]-isoxazole-3-carboxylic acid 4-hydroxycarbamoyl-benzylamide] |  |  |  |  | 
10400 nM | 2930 nM | 7050 nM | > 50000 nM | 4630 nM | 4.4 nM |  | O=C(Nc1cccc(-c2cc(C(=O)NCCc3cc(C(=O)NO)no3)no2)c1)c1ccccc1 [Compound 12] | > 50000 nM | accumulation of acetylated alpha-tubulin | − | − | 
1100 nM | 266 nM | 107 nM | 7000 nM | 271 nM | 3.3 nM |  | CCOC(=O)Nc1cccc(-c2csc(NC(=O)CCc3cc(C(=O)NO)no3)n2)c1 [Compound 5, (3-{2-[3-(3-Hydroxycarbamoyl-isoxazol-5-yl)-propionylamino]-thiazol-4-yl}-phenyl)-carbamic acid ethyl ester] | 2100 nM |  |  |  | 
4300 nM | 212 nM | 669 nM |  | 191 nM | 2.6 nM |  | O=C(NO)c1ccc(CNC(=O)c2cc(-c3cccc(NC(=O)C4CCCCC4)c3)on2)cc1 [Compound 17, 5-[3-(Cyclohexanecarbonyl-amino)-phenyl]-isoxazole-3-carboxylic acid 4-hydroxycarbamoyl-benzylamide] |  |  |  |  | 
